Literature values as cited in US20190321427A1, “Compositions to Treat Anal Fissures” (G&S Laboratories, Inc., priority 2018, published 2019).
Read-outs that look alike come from different tables or passages of the source.

Tested on: anal fissures

Row | Compound | healing rates (in vivo) | healing rates (anal fissure, literature (Poh, 2010)) | common side effect (topical treatment of anal fissure)
1 | botulinum toxin | 30-96% | – | –
2 | O=[N+]([O-])OCC(CO[N+](=O)[O-])O[N+](=O)[O-] [nitroglycerin] | – | 40-70% | headache
